Reference: patent US20240009224A1, “ACYCLIC THREONINOL NUCLEIC ACID” (The University of Tokyo, priority 2021, published 2024)
{Fluorescein} = fluorescein label

System: HeLa cells
Test: Flow cytometry of HeLa cells after introduction of fluorescein-labeled nucleic acid (cell membrane permeability)
Format: cell-based
Details: fluorescein-labeled control DNA = 1
Procedure: HeLa cells were cultured in Dulbecco's modified Eagle's medium (DMEM, manufactured by Thermo Fisher Scientific, Inc.) supplemented with 10% FBS and 0.5% penicillin/streptomycin in a humidified atmosphere (5 vol % CO2) at 37° C. Cells for image analysis were cultured in a 35 mm glass bottom dish (IWAKI, manufactured by AGC Techno Glass Co., Ltd.).
[…] On the day after seeding, the medium in each well was changed to DMEM medium (1 mL) containing a fluorescein-conjugated nucleic acid (2.5 μM) and incubated for 4 or 24 hours. Then, after washing the cell layer in the well twice with PBS, the cells were detached by treatment with 0.05% (w/v) trypsin (200 μL) at 37° C. for 5 minutes. The recovered cells were suspended in DMEM (600 μL). The cell suspension was separated by centrifugation process (400×g, 3 minutes), and PBS/1% BSA (500 μL) was added thereto. The ratio of fluorescent cells in this cell suspension and the mean fluorescence intensity were analyzed with a flow cytometer (“guava easyCyte8”, manufactured by Luminex Corporation).
After introducing a nucleic acid (fluorescein-labeled aTNA-N5[PFC8]) in which fluorescein was bound to the 3′-end of the synthesized aTNA-N5[PFC8] into HeLa cells, flow cytometry was performed, and the number of cells into which the fluorescein-labeled nucleic acid was introduced and the amount of fluorescein-labeled nucleic acid introduced into each cell were quantified based on the fluorescence intensity of fluorescein. As a control, a nucleic acid in which fluorescein was bound to the 3′-end of the control DNA (fluorescein-labeled control DNA) was also introduced into HeLa cells in the same manner and then analyzed by flow cytometry.
The fluorescein-labeled aTNA-N5[PFC8] produced in Example 1 was hybridized with a single-stranded DNA (control rDNA) composed of a base sequence (SEQ ID NO: 2) complementary to that of the control DNA to produce a fluorescein-labeled double-stranded DNA (fluorescein-labeled aTNA-N5[PFC8]/rDNA) having a repeating structure of the structure (A1) at the 5′-end and bound with fluorescein at the 3′-end. […] These fluorescein-labeled double-stranded DNAs were introduced into HeLa cells and then analyzed by flow cytometry in the same manner as in Example 1.
After respectively introducing nucleic acids (fluorescein-labeled aTNA-C2[PFC8] and fluorescein-labeled aTNA-C5[PFC8]) in which fluorescein was bound to the 3′-ends of the synthesized aTNA-C2[PFC8] and aTNA-C5[PFC8] into HeLa cells, flow cytometry was performed, and the number of cells into which the fluorescein-labeled nucleic acid was introduced and the amount of fluorescein-labeled nucleic acid introduced into each cell were quantified based on the fluorescence intensity of fluorescein. […]

Measured: Relative fluorescence intensity of cells into which fluorescein-labeled nucleic acid was introduced

Control DNA: control DNA (Seq. No. 1), natural single stranded DNA; fluorescein bound to the 3′-end (DNA TTTTTCAGTTGACCATATA; DNA, 3' {Fluorescein}, backbone and methylation of C not given here)
1.0: Example 1, single-stranded, 2.5 μM, 4 or 24 hours | Example 3, single-stranded | Example 4, single-stranded, 96-well plate, 10^4 cells per well, 2.5 μM, 4 hours | Example 6, single-stranded, 96-well plate, 10^4 cells per well, 2.0 μM, 4 hours
